Experimental data as given in patent US8796241B2, “Therapy of tumors and infectious agents deficient in methylthioadenosine phosphorylase” (priority 2007, dated 2014).
Marks after values point to notes of the source that are not given here.

Assays:
MTAP(+) HF cells [1] = experiment: Coculture of HF and A549-ouaR cells, clonogenic assay; format: cell-based, human
Description: (§1) Cell viability of adherent cell types was measured by clonogenic assay as follows: after releasing cells with trypsin and removing a portion of the cell suspension for Coulter counting, the remainder of the cell suspension was plated in serial dilutions in growth medium, without drugs. After a period sufficient for clones to reach a size visible by eye (usually 2 to 3 weeks), clones were stained with crystal violet in a saline/methanol solution. Dishes that had fewer than 100 clones were deemed suitable for counting. From these counts and from the dilution factors, the approximate number of viable cells, in the parent treatment dishes, was calculated. […] In clonogenic assays, clone size was often variable, especially after treatment with toxic drugs. Moreover, many of the very small clones may have arisen from cells detached during the weeks of incubation. […] Cloning efficiency for healthy, growing A549 cells was about 50%; for HF cells, efficiency was quite variable, ranging from 25 to 75% (perhaps because the HF cell stock varied, from experiment to experiment, in passage number).
(§2) HF and A549-ouaR (a ouabain-resistant derivative of the human lung carcinoma cell line A549, isolated by Applicants) cells were cultured together in a medium containing DAP, and with or without 5′-dAdo. After 3 days, cultures were trypsinized and serially diluted into fresh medium for clonogenic assays. Some dishes were treated with 0.1 μM ouabain to kill HF cells and permit easy visualization of surviving A549-ouaR clones. Initial viable cells: HF cells, 11,000; A549-ouaR cells, 40,000.

MTAP(−) A549-ouaR cells = experiment: as above; format: cell-based, human
Description: as §1, §2

MTAP(+) HF cells [2] = experiment: Coulter counts of HF cell cultures; format: cell-based, human; conditions: for Coulter counts: x56 = cells/dish
Description: For adherent cell types (e.g., HF, A549, MCF7) cells were plated in 60 mm -diameter plastic tissue culture dishes and incubated at 37° C. in a humidified 5% CO2 atmosphere, in Dulbecco's Modified Eagle's Medium (DME) with 10% fetal bovine serum (FBS). At the start of an experiment, medium was replaced with DME and 10% dialyzed FBS.
(§3) For adherent cell types, cell numbers were determined periodically by releasing cells with trypsin (dead cells that were no longer adherent were removed by two prior rinses of the culture dish) and placing a portion of the resulting cell suspension in a Coulter counter. For cell types that grow in suspension, portions of the culture were counted directly, without trypsin treatment. Coulter counts of cells from each dish were done twice, and almost all experiments were done in duplicate. In the presentation of results, raw data for Coulter counts is given in some cases, while in others, counts have been rounded off to two to three significant figures. (Background Coulter counts—i.e., counts of diluent alone—were insignificant.)
Cell cultures were treated with MeP, with or without 5′-dAdo or MTA, for 4 days. The cell cultures were then changed to fresh medium, with the addition of 30 μM Ade to inhibit further action of the analog. Two days later cultures were trypsinized and a portion of the suspension was counted.
• A. F-Ade was added to cultures of HF cells, with varying amounts of 5′-dAdo. After 3 days, cell numbers were counted. • Initial cell count: 1,100 • After three days:
• Cultures of human fibroblasts were treated with DAP, 5′-dAdo, MTA, adenine, or MTX. Thymidine (15 μM) was added to all cultures. • Initial count was: 1807 • Counts, as raw data, after 3 days of incubation, are shown below: […]
• Human fibroblasts in culture were treated with 6-thioguanine (TG), 2,6-diaminopurine (DAP), or 5′-dAdo for 3 days. After trypsinization, cell numbers were counted. • Initial cell number: 296,000

MTAP(+) ML-1 cells = experiment: Coulter counts of ML-1 suspension cultures; format: cell-based
Description: For cell types that grow in suspension (e.g., ML-1, HL-60, K-562) medium was RPMI-1640 with 10% FBS (undialyzed).
as §3
For cells that grow in suspension, the effect of treatments was assessed solely by changes in Coulter count.
• ML-1 cells were incubated in RPMI 1640 with 10% FBS with 5′-dAdo (60 μM) for 6 hours. 5-fluorouracil (FU), 6-thioguanine (TG), or 2,6-diaminopurine (DAP) were then added, and after 2 additional days, 0.5 ml was taken for Coulter counts. Initial Coulter count/ml: 308,000

MTAP(−) A549 cells [3] = experiment: Clonogenic assay of A549 cells; format: cell-based, human
Description: as §1
A549 cells were incubated for 4 days with additions shown below, and viable cells measured by clonogenic assay. (Results shown are approximate; see Methods) Cell count in dish at start: 40,000
(§4) • MTAP(−) A549 lung tumor cell cultures were treated with F-Ade, with or without MTA, 5′-dAdo, or adenine (Ade), for three days. Coulter counts of cells, and viable cells as determined by clonogenic assay, are shown below: • Initial cell number: 10,340*
• A549 cell cultures were treated with DAP, with or without 5′-dAdo or adenine, for three days. After trypsinization, one-fourth of the cell suspension was counted, and raw data is shown below, with duplicate counts for each sample. The cell suspension was also serially diluted for clonogenic assay. • Counts at start of experiment: Dish one: 36,480; 39,160; Dish two: 52,680; 51,360. • Initial viable cells by clonogenic assay: 180,000.
• Cell cultures were treated with MTX or alanosine for one day. DAP was then added and 3 days later, cells were trypsinized and serially diluted for clonogenic assay. Results are shown below: • Initial viable cells: 146,000
• A549 cells were plated, and after they had adhered to the substrate, medium was changed to methionine-free medium with 10% dialyzed serum. L-ethionine (Eth) and MTA were added, and after 4 days, cell cultures were trypsinized and serially diluted for clonogenic assay. • Initial number of viable cells: 160,000*
• A549 cultures were treated with 6-thioguanine (TG) or 2,6,diaminopurine (DAP), or both, for 3 days. • Initial viable cells: 275,000 • After 3 days: […]

[4] = system: human and mouse tumor cells; experiment: Killing of tumor cells by adenine analogs (Applicants' findings, no method given); format: cell-based
[5] = system: MCF7 cells, an MTAP-negative human breast adenocarcinoma cell line; experiment: Coculture of HF and MCF7 cells treated with DAP with or without MTA, photographs; format: cell-based
Description: (§5) FIGS. 6A and 6B present photographs of experiments examining the efficacy of the selective therapeutic method of the invention in two human-tissue coculture experiments. In both experiments human fibroblasts (HF cells), which are MTAP-positive, and MCF7 cells, an MTAP-negative human breast adenocarcinoma cell line, were seeded together into culture dishes, in DME supplemented with 10% dialyzed fetal bovine serum.
(§6) In the experiment of FIG. 6A the cell coculture was treated for four days with 100 μM DAP and 25 μM MTA. At the end of this period, some of the culture dishes were fixed, to be photographed. Other dishes were trypsinized and diluted five-fold into fresh (drug-free) medium with adenine added (to stop any further toxic action of DAP) and allowed to grow for two more, or five more, days, before being fixed for photography.
(§7) In the experiment of FIG. 6B cell cocultures were treated for three days with 200 μM DAP alone or with the addition of 50 μM MTA, or with no drugs at all. As shown in the photo of the dish without any drugs added to the culture medium, both HF and MCF7 grew very well; many large masses of MCF7 cells are visible, with the elongated HF cells interspersed, confluently, between the MCF7 masses.

[6] = system: human fibroblasts (HF cells), MTAP-positive; experiment: as above; format: cell-based
Description: as §5, §6, §7

MTAP(−) A549 cells [7] = experiment: Coulter counts of A549 cell cultures; format: cell-based, human; conditions: three days, MTA, 5′-dAdo or Ade 40 μM where present, initial 10,340, x4 = cells per dish
Description: as §3, §4
• A549 cell cultures were treated with DAP, with or without 5′-dAdo or adenine, for three days. After trypsinization, one-fourth of the cell suspension was counted, and raw data is shown below, with duplicate counts for each sample. […]

MTAP(+) HF cells [8] = experiment: Clonogenic assay of HF cells; format: cell-based, human
Description: as §1
• B. F-Ade was added to cultures of MTAP(+) HF cells, with or without 5′-dAdo, for 3 days. Cultures were then trypsinized and serially diluted for clonogenic assay. • Initial number of viable cells per dish: 45,000 • Viable cells after 3 days shown below:
• HF cells were plated, and after they had adhered to the substrate, medium was changed to methionine-free medium, with 10% dialyzed serum. • Initial Coulter count: 73,000*; viable cells: 88,000 • After 3 days in methionine-free medium, with or without L-ethionine (Eth) or MTA: […]

[9] = a few days of treatment with 100-200 μM DAP
[10] = three days, DAP 200 μM, MTA 50 μM where present

SMILES: Nc1nc(N)c2[nH]cnc2n1 [DAP, 2,6-diaminopurine]
- killing of HF cells in coculture (MTAP(+) HF cells [1]; DAP alone): effectively killed
- Viable HF (MTAP(+) HF cells [1]; coculture, 3 days, DAP 125 μM, 5′-dAdo 7.5 μM where present, initial viable HF cells 11,000): 240
- killing of A549-ouaR cells in coculture (MTAP(−) A549-ouaR cells; DAP alone): effectively killed
- Viable A549-ouaR (MTAP(−) A549-ouaR cells; coculture, 3 days, DAP 125 μM, 5′-dAdo 7.5 μM where present, initial viable A549-ouaR cells 40,000): 0
- Coulter counts (MTAP(+) HF cells [2]; 3 days, MTX 10 μM, DAP 100 μM, 5′-dAdo, MTA or Ade 15 μM where present, thymidine 15 μM in all cultures, initial count 1807): 2,483
- Increase in cells/dish (MTAP(+) HF cells [2]; 3 days, TG 40 μM, DAP 50 μM, 5′-dAdo 60 μM where present, initial cell number 296,000): 254,000 cells/dish
- inhibition of MTAP(+) HF cells (MTAP(+) HF cells [2]; Example 8): inhibited
- inhibition of HF cell growth (MTAP(+) HF cells [2]; Example 15): inhibited
- Increase in cell number/ml, No 5′-dAdo (MTAP(+) ML-1 cells; 2 days, FU 3 μM, TG 20 μM, DAP 50 μM where present, initial Coulter count/ml 308,000): 220,000 /ml
- inhibition of growth of MTAP(+) ML-1 cells (MTAP(+) ML-1 cells; Example 14): inhibited growth
- toxicity to MTAP(−) A549 cells (MTAP(−) A549 cells [3]; 100 μM DAP): highly toxic
- Viable Cells (MTAP(−) A549 cells [3]; 3 days, TG 40 μM, DAP 50 μM where present, initial viable cells 275,000): 12,000
- Viable Cells (MTAP(−) A549 cells [3]; MTX 1 μM or alanosine 3 μM for one day, then DAP 40 μM, 3 days (where present), initial viable cells 146,000): 59,000
- Viable Cells (MTAP(−) A549 cells [3]; three days, DAP 100 μM, 5′-dAdo or Ade 30 μM where present, initial viable cells 180,000): 0
- killing of human and mouse tumor cells [4]: very rapid and potent killing
- killing of MCF7 cells in coculture [5, 9]: effectively killed
- MCF7 cells in coculture (photographs, FIG. 6B) [5, 10]: very few, if any, HF or MCF7 cells have survived
- killing of HF cells in coculture [6, 9]: effectively killed
- HF cells in coculture (photographs, FIG. 6B) [6, 10]: very few, if any, HF or MCF7 cells have survived

SMILES: Nc1nc(F)nc2nc[nH]c12 [F-Ade, 2-fluoroadenine]
- Coulter counts (MTAP(−) A549 cells [7]; F-Ade 1 μM): 7,980
- Coulter counts (MTAP(−) A549 cells [7]; F-Ade 2 μM): 7,890
- Coulter counts (MTAP(+) HF cells [2]; 3 days, F-Ade 0.3 μM, 5′-dAdo 7.5 μM where present, initial count 1,100): 1478
- Coulter counts (MTAP(+) HF cells [2]; 3 days, F-Ade 0.6 μM, 5′-dAdo 7.5 μM where present, initial count 1,100): 976
- inhibition of HF cell growth (MTAP(+) HF cells [2]; increasing concentrations of F-Ade): increasing inhibition
- toxicity to A549 tumor cells, clonogenic assay (MTAP(−) A549 cells [3]; 1 to 2 μM F-Ade): highly toxic
- Viable Cells (MTAP(−) A549 cells [3]; three days, F-Ade 1 μM, MTA, 5′-dAdo or Ade 40 μM where present): 64
- Viable Cells (MTAP(−) A549 cells [3]; three days, F-Ade 2 μM, MTA, 5′-dAdo or Ade 40 μM where present): 0
- killing of human and mouse tumor cells [4]: very rapid and potent killing
- killing of human tumor cells ([4]; very short-term assays of 6 to 12 hours): effectively kill
- survival of HF cells (MTAP(+) HF cells [8]; 2 μM F-Ade, after 3 days): no HF cells survive
- Viable Cells (MTAP(+) HF cells [8]; 3 days, F-Ade 2 μM, 5′-dAdo 30 μM where present, initial viable cells per dish 45,000): 0*
